The conditions of data set [1]: im, swiss mice; cited from earlier work.
The test system of data set [2] is P. falciparum. To be noted: cited from earlier work.
The subject of a further data set is uncomplicated malaria. To be noted: cited from earlier work.
For a further data set, the system named is cerebral malaria. The note with it: comatose cerebral malaria cases; quinine intravenous; cited from earlier work.
In data set [3] the test system is multi drug resistant P. yoelii nigeriensis. Nature of the data set: Variable regimen of α/β arteether (oral, in oil) and Fansidar (oral) against multi drug resistant P. yoelii nigeriensis in Swiss mice. It is filed as in vivo, Plasmodium yoelii nigeriensis. The method, then: Experimental: Swiss mice (20±2 g) were inoculated intra peritoneal with 1×10^6 Plasmodium yoelii nigeriensis (malaria parasite) infected mouse red blood cells. Fansidar was suspended in tween 80 and then in triple distilled water and different doses i.e., 5, 2.5 and 1.25 mg/kg were admimstered in previously infected Swiss mice. Fansidar was administered by oral route for only 1 day i.e. on day 0. α/β Arteether was dissolved in neutralized and sterilized ground nut oil and doses i.e. 25 mg/kg×1 ×4, 12.5mg/kg×4 were given orally in combination with 5.0, 2.5 and 1.25 mg/kg ×1 dose of Fansidar. These doses of both the drugs were given individually for comparison. One group of mice was kept as infected control. After treatment parasitaemia was recorded from tail blood smears of individual mouse and their mean parasitaemia was calculated.

In another data set the test system is P. yoelii nigeriensis. Nature of the data set: Curative dose against P. yoelii nigeriensis in swiss mice. In kind it is in vivo, Plasmodium yoelii nigeriensis. The note with it: for three days (x3), intramuscular. How it is done: The curative dose of α,β arteether against P. yoelii nigeriensis in gwiss mice (a murine model equivalent to P. falciparum in human) is 7.5 mg/kg for three days. Sulfadoxin/pyrimethtnine combination is usually given for P. falciparum infection, to adult humans as a single dose of 1500 mg sulfadoxin and 75 mg pyremethamine (usually in 3 tablets of 500 mg sulfadoxin and 25 mg pyremethamine) (practical chemotherapy of malaria, WHO, Geneva 1990). For children if they are below 40 kg, only 2 tablets are recommended. […] Although resistance to Fansidar is documented in expatriates in East Africa (Schapira et al. 1986), the drug is reported to be generally effective in the indigenous population (Spencer et al. 1984) and it is treated as second line of drug and is the only affordable drug for chloroquine resistant cases in developing countries. In combination the proposed doses of α,β arteether plus sulfadoxin and pyrimethamine for humans would be 150 mg×3 (im injections) or 450-750 mg×5 (oral dose) of α,β arteether with three tablets of 500 mg sulfadoxin and 25 mg of pyrimethamine for P. falciparum. The proposed combination therapy will certainly reduce the incidence of recrudescence and new infection in high transmission areas.

Data set [4] has as its system multi drug resistant P. yoelii nigeriensis. Nature of the data set: Shorter regimen of α/β arteether (im) and Fansidar (oral) against multi drug resistant P. yoelii nigeriensis in Swiss mice. It is filed as in vivo, Plasmodium yoelii nigeriensis. The method, then: Experimental: Swiss mice (20±2 g) were inoculated intra peritoneal with 1×10^6 Plasmodium yoelii nigeriensis (malaria parasite) infected mouse red blood cells. Faosidar was suspended in tween 80 and then in triple distilled water and 2.5 mg/kg dose was administered in previously infected Swiss mice. Fansidar was administered by oral route for only 1 day i.e. on day 0 or day 1. α/β Arteether was dissolved in neutralized and sterilized ground nut oil and doses i.e. 7.5 mg/kg×1, ×2, 5 mg/kg×1, ×2 by intramuscular route were given in combination with 2.5 mg/kg ×1 dose of Fansidar. These doses of both the drugs were given individually for comparison. One group of mice was kept as infected control. After treatment parasitaemia was recorded from tail blood smears of individual mouse.

The subject of data set [5] is P. falciparum. To be noted: arteether 150 mg i.m. daily for three days, uncomplicated P. falciparum malaria, cited from earlier work.
Data set [6] concerns multi drug resistant P. yoelii nigeriensis. Nature of the data set: Arteether (im, x3) and Fansidar (oral, x1) in combination against multi drug resistant P. yoelii nigeriensis infection in Swiss mice. It is filed as in vivo, Plasmodium yoelii nigeriensis. How it is done: Experimental: Swiss mice (20±2 g) were inoculated intra peritoneal with 1×10^6 Plasmodium yoelii nigeriensis (malaria parasite) infected mouse red blood cells. Fansidar was suspended in tween 80 and then in triple distilled water and two different doses, i.e. 1.25-2.5 mg/kg were administered in previously infected Swiss mice. Fansidar was administered by oral route for only 1 day. α/β Arteether was dissolved in neutralized and sterilized ground nut oil and doses i.e. 1.25, 1.78 and 2.5mg/kg were administered by intramuscular route for 3 days. In other groups of infected mice these drugs were given individually for comparison. 2.5, 1.78 and 1.25 mg/kg and α/β arteether were given in combinations with 2.5 and 1.25 mg/kg Fansidar. One group of mice was kept as infected control. After treatment parasitaemia was recorded from tail blood smears of individual mouse. (Table-1)

For data set [7] the test system is unchanged. Kind of data set: α/β arteether (oral, aqueous) and Fansidar (oral) against multi drug resistant P. yoelii nigeriensis in Swiss mice. It is filed as in vivo, Plasmodium yoelii nigeriensis. The method, then: Experimental: Swiss mice (20±2 g) were inoculated intra peritoneal with 1×10^6 Plasmodium yoelii nigeriensis (malaria parasite) infected mouse red blood cells. Fansidar was suspended in tween 80 and then in triple distilled water and different doses i.e. 2.5 and 1.25 mg/kg were administered in previously infected Swiss mice. Fansidar was administered by oral route for only 1 day i.e. on day 0 α/β Arteether was dissolved in tween 80 and triple distilled water and doses i.e. 24 and 12 and 6 mg/kg×4 were given orally in combination with 2.5 and 1.25 mg/kg ×1 dose of Fansidar. These doses of both the drugs were also given individually for comparison. One group of mice was kept as infected control. After treatment parasitaemia was recorded from tail blood smears of individual mouse and their mean parasitaemia was calculated.

Data set [8] has as its system P. falciparum. To be noted: 211 patients of complicated P. falciparum malaria; cited from earlier work.
The mark [9] stands for this setting: arteether 12.5 mg/kg x4 oral (in oil) alone.
Setting [10] is: arteether 25.0 mg/kg x4 oral (in oil) alone.
Where [11] appears, read: arteether 5.0 mg/kg x1 (day 0) im alone.
The mark [12] stands for this setting: arteether 5.0 mg/kg x2 (days 0, 1) im alone.
Setting [13] is: arteether 7.5 mg/kg x1 (day 0) im alone.
The mark [14] stands for this setting: arteether 7.5 mg/kg x2 (days 0, 1) im alone.
Where [15] appears, read: arteether 1.25 mg/kg x3 im alone.
[16] abbreviates: arteether 1.78 mg/kg x3 im alone.
[17] abbreviates: arteether 2.5 mg/kg x3 im alone.
Where [18] appears, read: arteether 6 mg/kg x4 oral (aqueous) alone.
[19] abbreviates: arteether 12 mg/kg x4 oral (aqueous) alone.
[20] abbreviates: arteether 24 mg/kg x4 oral (aqueous) alone.

Read-outs that look alike come from different tables or passages of the source. A value given as a limit tells only on which side of the number the result lay.

With `C[C@H]1[C@H](OC(=O)CCC(=O)O)O[C@@H]2O[C@@]3(C)CC[C@H]4[C@H](C)CC[C@@H]1[C@@]24OO3` [artesunate], in data set [1], the LD50 (usually the dose at which mortality reaches 50%) is listed as 475 mg/kg.

With `COc1ncnc(NS(=O)(=O)c2ccc(N)cc2)c1OC` [sulfadoxin], the “concentration giving 100% inhibition in vitro” value in the data set on P. falciparum [2] is < 5.0 mmol/lit.

`CO[C@H]1O[C@@H]2O[C@@]3(C)CC[C@H]4[C@H](C)CC[C@@H]([C@H]1C)[C@@]24OO3` [artemether]: the LD50 in data set [1] is recorded as 263 mg/kg.

Regarding `C[C@@H]1CC[C@H]2[C@@H](C)C(=O)O[C@@H]3O[C@@]4(C)CC[C@@H]1[C@]32OO4` [artemisiain, artemisinin], the recrudescence was 38% in the data set with uncomplicated malaria (20 mg/kg x3 days) and 15% in the data set with uncomplicated malaria (20 mg/kg x5 days). In the data set on cerebral malaria, the “reduction in parasitaemia (time)” value is 16 h.

As for `C=C[C@H]1C[N@@]2CC[C@H]1C[C@H]2[C@H](O)c1ccnc2ccc(OC)cc12` [quinine], the recrudescence in the data set on uncomplicated malaria (10 mg/kg x7 days) is recorded as 16%. In addition, the “reduction in parasitaemia (time)” value with cerebral malaria is 34.5 h.

As to `CCO[C@H]1O[C@@H]2O[C@@]3(C)CC[C@H]4[C@H](C)CC[C@@H]([C@H]1C)[C@@]24OO3` [α/β arteether, α,β-Arteether], in [3] (setting [9]), the “% Cure rate” value is reported as 28.5%, the “Mice remained negative on day 4” value is 5/7, the “Mice remained negative on day 7” value was 3/7 and the “Mice remained negative on day 14” value is on record as 2/2. Besides, in [3] (setting [9]), the “Mice remained negative on day 21” value is given as 2/2 and the “Mice remained negative on day 28” value is recorded as 2/2. Further, in data set [3] (setting [10]), the “% Cure rate” value came out at 57.1%, the “Mice remained negative on day 4” value is given as 7/7, the “Mice remained negative on day 7” value is 7/7 and the “Mice remained negative on day 14” value was 4/4. Also, in data set [3] (setting [10]), the “Mice remained negative on day 21” value is recorded as 4/4 and the “Mice remained negative on day 28” value was 4/4. The LD50 in [1] is 1250 mg/kg. Further, in the data set with P. yoelii nigeriensis, the curative dose is recorded as 7.5 mg/kg. Further, in [4] (setting [11]), the “Cure rate (%)” value is on record as 0.0%, the “Day 4 mice negative/total” value is 6/6, the “Day 7 mice negative/total” value was 2/6 and the “Day 10 mice negative/total” value is 0/4. In data set [4] (setting [12]), the “Cure rate (%)” value came out at 83.3%, the “Day 4 mice negative/total” value is reported as 6/6, the “Day 7 mice negative/total” value is recorded as 6/6 and the “Day 10 mice negative/total” value is 6/6. Besides, in data set [4] (setting [12]), the “Day 14 mice negative/total” value was 6/6, the “Day 21 mice negative/total” value is 5/5 and the “Day 28 mice negative/total” value is recorded as 5/5. In addition, in data set [4] (setting [13]), the “Cure rate (%)” value is recorded as 83.3%, the “Day 4 mice negative/total” value is reported as 6/6, the “Day 7 mice negative/total” value is 6/6 and the “Day 10 mice negative/total” value is 6/6. Further, in [4] (setting [13]), the “Day 14 mice negative/total” value was 6/6, the “Day 21 mice negative/total” value is listed as 5/5 and the “Day 28 mice negative/total” value is recorded as 5/5. In addition, in data set [4] (setting [14]), the “Cure rate (%)” value is on record as 100%, the “Day 4 mice negative/total” value is 6/6, the “Day 7 mice negative/total” value is 6/6 and the “Day 10 mice negative/total” value is reported as 6/6. In addition, in [4] (setting [14]), the “Day 14 mice negative/total” value is reported as 6/6, the “Day 21 mice negative/total” value is recorded as 6/6 and the “Day 28 mice negative/total” value was 6/6. Moreover, the cure rate in the data set with P. falciparum [5] (267 patients) is 97%. In the data set on P. falciparum [5], the fever clearance time was 1 to 7 days and the parasite clearance time was 1 to 3 days. In addition, in [6] (setting [15]), the “Cure rate (%)” value is listed as 0.0%, the “Day 4 mice negative/total” value was 3/6 and the “Day 7 mice negative/total” value was 0/6. Besides, in data set [6] (setting [16]), the “Cure rate (%)” value is recorded as 16.6%, the “Day 4 mice negative/total” value is 6/6, the “Day 7 mice negative/total” value is recorded as 5/6 and the “Day 14 mice negative/total” value was 2/2. Moreover, in data set [6] (setting [16]), the “Day 18 mice negative/total” value is listed as 1/2, the “Day 21 mice negative/total” value is on record as 1/2 and the “Day 28 mice negative/total” value is on record as 1/1. Besides, in data set [6] (setting [17]), the “Cure rate (%)” value amounted to 66.6%, the “Day 4 mice negative/total” value is 6/6, the “Day 7 mice negative/total” value is 6/6 and the “Day 14 mice negative/total” value is 4/4. Also, in [6] (setting [17]), the “Day 18 mice negative/total” value is on record as 4/4, the “Day 21 mice negative/total” value is given as 4/4 and the “Day 28 mice negative/total” value is recorded as 4/4. Also, in data set [7] (setting [18]), the “% Cure rate” value was determined as 0.0%, the “Mice remained negative on day 4” value was 5/7 and the “Mice remained negative on day 7” value was 0/3. In data set [7] (setting [19]), the “% Cure rate” value was determined as 0.0%, the “Mice remained negative on day 4” value is on record as 3/7 and the “Mice remained negative on day 7” value is given as 0/5. In addition, in [7] (setting [20]), the “% Cure rate” value came to 14.28%, the “Mice remained negative on day 4” value is listed as 7/7, the “Mice remained negative on day 7” value is on record as 3/6 and the “Mice remained negative on day 14” value is 1/3. Besides, in [7] (setting [20]), the “Mice remained negative on day 21” value was 1/2 and the “Mice remained negative on day 28” value is listed as 1/1. Further, in [7] (x4, oral, aqueous (tween 80/water)), the “curative dose with oral formulation (calculated)” value is 72 mg/kg. Besides, in the data set with P. falciparum [8], the fever clearance time is 24 to 168 h and the overall cure rate was 93%.

The values above are taken from US20060141024A1, “Synergistic combination kit of alpha,beta-arteether, sulfadoxin and pyrimethamine for treatment of severe/multi-drug resistant cerebral malaria” (COUNCIL OF SIENTIFIC AND INDUSTRIAL RESEARCH, priority 2004, published 2006).
